Key:
human DRD2, long form = molecular target: T1, human DRD2, long form (Homo sapiens, UniProt P14416); assay: Intracellular Ca2+ mobilization assay (HEK293T stably expressing DRD2, chimeric G-protein Gqi5, calcium dye, confocal microscopy); type: cell-based; conditions: for EC50: Ca assay, HEK293T stably expressing human DRD2 and chimeric G-protein, Hill slope of 1.0; for activity in calcium flux assay (in words): calcium flux bioactivity
T1 construct: expressed in transfected cells; Gqi5 chimera transiently transfected
T1 sequence (P14416 whole entry): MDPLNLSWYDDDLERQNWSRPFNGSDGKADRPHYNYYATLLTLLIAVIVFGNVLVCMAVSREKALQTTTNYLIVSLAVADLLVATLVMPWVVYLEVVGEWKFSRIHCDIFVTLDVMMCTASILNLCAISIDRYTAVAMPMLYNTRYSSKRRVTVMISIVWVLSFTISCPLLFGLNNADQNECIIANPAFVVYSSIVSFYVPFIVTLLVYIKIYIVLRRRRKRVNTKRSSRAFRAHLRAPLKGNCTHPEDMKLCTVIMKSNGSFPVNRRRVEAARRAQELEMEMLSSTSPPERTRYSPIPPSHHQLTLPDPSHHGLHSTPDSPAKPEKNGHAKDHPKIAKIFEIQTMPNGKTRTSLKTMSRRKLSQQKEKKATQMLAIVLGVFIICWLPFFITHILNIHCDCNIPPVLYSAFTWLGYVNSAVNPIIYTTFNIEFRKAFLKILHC
Experimental: Intracellular calcium measurement was used to determine G-protein-mediated signaling by DRD2. Because DRD2 is linked to the G-protein subtype Gi, agonist binding inhibits adenyl cyclase activity.[42] To mitigate this effect, we created an HEK293T cell line stably expressing human DRD2, long form, and a chimeric G-protein, Gqi, which alters the DRD2 receptor’s G-protein coupling so that signaling can occur through Gq, resulting in an intracellular calcium flux.[43] The assay is performed by first loading the cell line with a calcium-sensing dye. Binding of the ligand to the receptor results in an influx of calcium to the cytoplasm, which can be characterized in real time by monitoring the increase in dye fluorescence with confocal microscopy.
Figure 2 Intracellular calcium flux assay. HEK293T cell line stably expressing constructs for human DRD2 and a chimeric G-protein is loaded with calcium-sensing dye, […]. After dosing the probe, confocal microscopy is used to determine the calcium flux in the cell by change in dye fluorescence.
A stable HEK293T-derived cell line-expressing DRD2-Strep Tag II fusion was maintained in DMEM supplemented with 10% FBS, 100 U/mL penicillin, and 100 μg/mL streptomycin in a humidified atmosphere at 37 °C in 5% CO2. On day 1, cells were plated at a density of 4 × 10^4 cells/cm^2 in a poly-D-lysine-coated 18-well chambered coverslip (Ibidi). The following day (day 2), cells were transfected with a 10× solution of 3:1 mixture of Gqi5/Optifect Transfection Reagent (Thermo) in unsupplemented DMEM. On day 3, the transfection media was removed and calcium-sensitive dye loading was performed following the protocol of the Fluo-4 Direct Calcium Assay Kit (Invitrogen). 5× drug stimulation solutions were prepared in filter-sterilized HBSS. Once Fluo-4 loading was complete, a time series acquisition at a rate of 1 fps was recorded using a Zeiss LSM 980 with Airyscan 2. Basal fluorescence was recorded for 20 s, followed by the addition of drug solution to a 1× final concentration and acquisition for an additional 40 s. Results in the form of fold fluorescence increase over basal were averaged over 50 cells in ImageJ (NIH), and GraphPad Prism was used for the analysis of data.

[1] = tested on: DRD2-expressing cell line (DRD2-Strep Tag II fusion HEK293T); assay: Colocalization analysis via confocal microscopy of photo-cross-linked, dye-clicked probe in cells; type: cell-based, human; conditions: probe 5 μM, Alexa Fluor 555 azide clicked
Experimental: After the biochemical characterization of the dynamic interaction between the probe and target, we set out to characterize the static interaction: colocalization of probe and receptor in cells, with an emphasis on both on- and off-target labeling. Specifically, due to the known propensity for photo-cross-linking groups to nonspecifically label, we wanted a holistic view of how the probes interacted with whole cells. Thus, we treated our DRD2-expressing cell line with a 5 μM solution of the probe, photo-cross-linked, “clicked” on an azido fluorophore, and labeled the DRD2 receptor via an antibody conjugated to a complementary fluorophore (Figure 4a). Our results (Figure 4b) indicate that there is indeed background labeling with the probes. […] We therefore proceeded to quantify the specific vs nonspecific binding of the probe.
Figure 4 Photo-cross-linking of dye-clicked probe: confocal microscopy. (a) Schematic of the methodology used in the labeling process. […]
HEK293T cells and a stable HEK293T-derived cell line-expressing DRD2-Strep Tag II fusion were maintained in DMEM supplemented with 10% FBS, 100 U/mL penicillin, and 100 μg/mL streptomycin in a humidified atmosphere at 37 °C in 5% CO2. […] The cells were then washed 3 times with TBS and imaged for Alexa Fluor 488 fluorescence and AF555 fluorescence using a Zeiss LSM 980 with Airyscan 2. […]

Row | SMILES | EC50 (human DRD2, long form) | activity in calcium flux assay (in words) (human DRD2, long form) | labeling of DRD2-expressing cells (confocal microscopy) [1] | difference in potency of probe vs parent compound (human DRD2, long form; calcium assay, 5 vs ropinirole)
1 | C#CCOc1ccc(C(=O)c2ccc(CN[C@H]3CCc4nc(N)sc4C3)cc2)cc1 [Compound 7, (S)-(4-(((2-Amino-4,5,6,7-tetrahydrobenzo[d]thiazol-6-yl)amino)methyl)phenyl)(4-(prop-2-yn-1-yloxy)phenyl)methanone] | 2.19 µM | low micromolar potency | higher avidity relative to the other probes | –
2 | C#CCOc1ccc(C(=O)c2ccc(CNCCc3cccc4c3CC(=O)N4)cc2)cc1 [Compound 5, 4-(2-((4-(4-(Prop-2-yn-1-yloxy)benzoyl)benzyl)amino)ethyl)indolin-2-one] | 1.67 µM | low micromolar potency | higher avidity relative to the other probes | ~10 ×

— paper PMC9585581, “Developing Photoaffinity Probes for Dopamine Receptor D2 to Determine Targets of Parkinson’s Disease Drugs” (ACS Chemical Neuroscience, 2022)
